Laboratory results as given in patent US8785460B2, “Tricyclic compounds and use thereof” (Takeda Pharmaceutical Company Limited, priority 2008, dated 2014).
Counter-ions that a name gives are not always drawn.

Biological target: T1, human CRF1 receptor (Homo sapiens, UniProt P34998)
T1 construct: expressed in transfected cells; host or cells: CHO cells (membrane fraction)
T1 sequence (P34998 24-415): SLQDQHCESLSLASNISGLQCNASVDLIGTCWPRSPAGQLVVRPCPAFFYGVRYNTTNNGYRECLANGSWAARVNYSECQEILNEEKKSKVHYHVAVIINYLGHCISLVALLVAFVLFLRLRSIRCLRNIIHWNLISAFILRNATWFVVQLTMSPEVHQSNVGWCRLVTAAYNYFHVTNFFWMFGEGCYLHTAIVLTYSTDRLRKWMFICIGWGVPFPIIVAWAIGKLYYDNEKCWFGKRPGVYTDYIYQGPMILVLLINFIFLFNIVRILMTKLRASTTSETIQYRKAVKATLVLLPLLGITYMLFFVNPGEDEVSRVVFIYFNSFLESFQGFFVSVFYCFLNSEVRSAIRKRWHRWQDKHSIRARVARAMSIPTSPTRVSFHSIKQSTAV
Test: Measurement of CRF Binding Inhibitory Rate (receptor binding experiment with 125I-CRF)
Details: human CRF1 receptor expressing CHO cellular membrane fraction, 50 pM 125I-CRF, room temperature 1.5 hr, 0.05 nM to 10 μM of compound; read-out: IC50 values (CRF binding inhibition)
Experimental: Measurement of CRF Binding Inhibitory Rate
A receptor binding experiment was carried out using a human CRF1 receptor expressing CHO cellular membrane fraction and ovine CRF, [^125I]-tyr^0(^125I-CRF). 1000 nM of a test compound was incubated with 1 μg of human CREF receptor expressing CHO cellular membrane fraction and 50 pM of ^125I-CRF in a binding assay buffer (50 mM Tris-HCl, 5 mM EDTA, 10 mM MgCl2, 0.05% CHAPS, 0.1% BSA, 0.5 mM PMSF, 0.1 μg/mL pepstatin, 20 μg/mL leupeptin, pH 7.5). In addition, for measuring nonspecific binding (NSB), 0.1 μM unlabelled human Urocortin was incubated with 5 μg of human CRE receptor expressing CHO cellular membrane fraction and 50 pM of ^125I-CRF in a binding assay buffer. After a binding reaction was carried out at room temperature for 1.5 hr, the membrane was entrapped on a glass filter (UniFilter plate GF-C/Perkin Elmer) by suction filtration using a cell harvester (Perkin Elmer), and washed with ice-cooled 50 mM Tris-HCl (pH 7.5). After drying the glass filter, a liquid scintillation cocktail (Microscinti 0, Perkin Elmer) was added, and the radioactivity of ^125I-CRF remaining on a glass filter was measured using Topcount (Perkin Elmer).
(TB−SB)/(TB−NSB)×100 (SB: radioactivity when a compound is added, TB: maximum binding radioactivity, NSB: nonspecific binding radioactivity) were calculated to obtain binding inhibitory rates under the range of the presence from 0.05 nM to 10 μM of each compound. The IC50 values were calculated by using GraphPad Prism software.

SMILES	IC50 [µM]
CCN(CC)c1cccc2nc3n(c12)CCCOC3c1ccc(Cl)cc1Cl (single isomer, unassigned) [Example 485, 1-(2,4-Dichlorophenyl)-N,N-diethyl-4,5-dihydro-1H,3H-[1,4]oxazepino[4,3-a]benzimidazol-7-amine]	< 1
CCC(OC(C)=O)c1ccc(Cl)c2nc3n(c12)CCCN3c1ccc(Cl)cc1Cl (single isomer, unassigned; (-)) [Example 239, (−)-1-[9-Chloro-1-(2,4-dichlorophenyl)-1,2,3,4-tetrahydropyrimido[1,2-a]benzimidazol-6-yl]propyl acetate]	< 1
CCC(OC(C)=O)c1ccc(Cl)c2nc3n(c12)CCCN3c1ccc(OC)nc1C (single isomer, unassigned; (-)) [Example 266, (−)-1-[9-Chloro-1-(6-methoxy-2-methylpyridin-3-yl)-1,2,3,4-tetrahydropyrimido[1,2-a]benzimidazol-6-yl]propyl acetate]	< 1
CCC(CC)c1ccc(Cl)c2nc3n(c12)CCN3c1c(C)cc(Cl)cc1OC [Example 1, 8-Chloro-1-(4-chloro-2-methoxy-6-methylphenyl)-5-(1-ethylpropyl)-2,3-dihydro-1H-imidazo[1,2-a]benzimidazole]	< 1
CCC(CC)c1ccc(Cl)c2nc3n(c12)CC(=O)N3c1c(C)cc(Cl)cc1OC [Example 2, 8-Chloro-1-(4-chloro-2-methoxy-6-methylphenyl)-5-(1-ethylpropyl)-1H-imidazo[1,2-a]benzimidazol-2(3H)-one]	< 1
CCC(CC)c1ccc(Cl)c2nc3n(c12)CCN3c1ccc(Cl)cc1C=O [Example 6, 5-Chloro-2-[8-chloro-5-(1-ethylpropyl)-2,3-dihydro-1H-imidazo[1,2-a]benzimidazol-1-yl]benzaldehyde]	< 1
CCC(CC)c1ccc(Cl)c2nc3n(c12)CCN3c1ccc(Cl)cc1CN(C)C [Example 8, 1-{5-Chloro-2-[8-chloro-5-(1-ethylpropyl)-2,3-dihydro-1H-imidazo[1,2-a]benzimidazol-1-yl]phenyl}-N,N-dimethylmethanamine]	< 1
CCC(CC)c1ccc(Cl)c2nc3n(c12)CC(=O)N3c1cnc(N(C)C)cc1C [Example 9, 8-Chloro-1-[6-(dimethylamino)-4-methylpyridin-3-yl]-5-(1-ethylpropyl)-1H-imidazo[1,2-a]benzimidazol-2(3H)-one]	< 1
CCC(CC)c1ccc(Cl)c2nc3n(-c4c(C)cc(Cl)cc4OC)c(Cl)cn3c12 [Example 10, 2,8-Dichloro-1-(4-chloro-2-methoxy-6-methylphenyl)-5-(1-ethylpropyl)-1H-imidazo[1,2-a]benzimidazole]	< 1
CCC(CC)c1ccc(Cl)c2nc3n(c12)CCN3c1ccccc1Cl [Example 13, 8-Chloro-1-(2-chlorophenyl)-5-(1-ethylpropyl)-2,3-dihydro-1H-imidazo[1,2-a]benzimidazole]	< 1
CCC(CC)c1ccc(Cl)c2nc3n(c12)CCN3c1ccc(C=O)cc1Cl [Example 16, 3-Chloro-4-[8-chloro-5-(1-ethylpropyl)-2,3-dihydro-1H-imidazo[1,2-a]benzimidazol-1-yl]benzaldehyde]	< 1
CCC(CC)c1ccc(Cl)c2nc3n(c12)CCN3c1ccc(Cl)cc1C#N [Example 18, 5-Chloro-2-[8-chloro-5-(1-ethylpropyl)-2,3-dihydro-1H-imidazo[1,2-a]benzimidazol-1-yl]benzonitrile]	< 1
CCC(CC)c1ccc(Cl)c2nc3n(c12)CCCCN3c1c(C)nn(C)c1C [Example 24, 10-Chloro-7-(1-ethylpropyl)-1-(1,3,5-trimethyl-1H-pyrazol-4-yl)-2,3,4,5-tetrahydro-1H-[1,3]diazepino[1,2-a]benzimidazole]	< 1
CCC(CC)c1ccc(Cl)c2nc3n(c12)CCCCN3c1ccc(C)cc1 [Example 32, 10-Chloro-7-(1-ethylpropyl)-1-(4-methylphenyl)-2,3,4,5-tetrahydro-1H-[1,3]diazepino[1,2-a]benzimidazole]	< 1
CCC(CC)c1ccc(Cl)c2nc3n(c12)CCCCN3c1ccc(C)cc1CO [Example 33, {2-[10-Chloro-7-(1-ethylpropyl)-2,3,4,5-tetrahydro-1H-[1,3]diazepino[1,2-a]benzimidazol-1-yl]-5-methylphenyl}methanol]	< 1
CCC(CC)c1ccc(Cl)c2nc3n(c12)CCCCN3c1ccc(C)cc1C=O [Example 34, 2-[10-Chloro-7-(1-ethylpropyl)-2,3,4,5-tetrahydro-1H-[1,3]diazepino[1,2-a]benzimidazol-1-yl]-5-methylbenzaldehyde]	< 1
CCC(CC)c1ccc(Cl)c2nc3n(c12)CCCCN3c1ccc(C)cc1CN(C)C [Example 35, 1-{2-[10-Chloro-7-(1-ethylpropyl)-2,3,4,5-tetrahydro-1H-[1,3]diazepino[1,2-a]benzimidazol-1-yl]-5-methylphenyl}-N,N-dimethylmethanamine hydrochloride]	< 1
CCC(CC)c1ccc(Cl)c2nc3n(c12)CCCCN3c1ccc(OC(F)(F)F)cc1 [Example 40, 10-Chloro-7-(1-ethylpropyl)-1-[4-(trifluoromethoxy)phenyl]-2,3,4,5-tetrahydro-1H-[1,3]diazepino[1,2-a]benzimidazole]	< 1
CCC(CC)c1ccc(Cl)c2nc3n(c12)CCCCN3c1ccc(OC(F)(F)F)cc1C=O [Example 41, 2-[10-Chloro-7-(1-ethylpropyl)-2,3,4,5-tetrahydro-1H-[1,3]diazepino[1,2-a]benzimidazol-1-yl]-5-(trifluoromethoxy)benzaldehyde]	< 1
CCC(CC)c1ccc(Cl)c2nc3n(c12)CCCCN3c1ccc(OC(F)(F)F)cc1CN(C)C [Example 42, 1-[2-[10-Chloro-7-(1-ethylpropyl)-2,3,4,5-tetrahydro-1H-[1,3]diazepino[1,2-a]benzimidazol-1-yl]-5-(trifluoromethoxy)phenyl]-N,N-dimethylmethanamine hydrochloride]	< 1
CCC(CC)c1ccc(Cl)c2nc3n(c12)CCCCN3c1ccc(Br)cc1C [Example 43, 1-(4-Bromo-2-methylphenyl)-10-chloro-7-(1-ethylpropyl)-2,3,4,5-tetrahydro-1H-[1,3]diazepino[1,2-a]benzimidazole]	< 1
CCC(CC)c1ccc(Cl)c2nc3n(c12)CCCCN3c1cccnc1OC [Example 55, 10-Chloro-7-(1-ethylpropyl)-1-(2-methoxypyridin-3-yl)-2,3,4,5-tetrahydro-1H-[1,3]diazepino[1,2-a]benzimidazole]	< 1
CCC(CC)c1ccc(Cl)c2nc3n(c12)CCCCN3c1ncc(N)cc1C [Example 65, 6-[10-Chloro-7-(1-ethylpropyl)-2,3,4,5-tetrahydro-1H-[1,3]diazepino[1,2-a]benzimidazol-1-yl]-5-methylpyridin-3-amine]	< 1
CCC(=O)c1cccc2nc3n(c12)CCCCN3c1ccc(Cl)cc1Cl [Example 69, 1-[1-(2,4-Dichlorophenyl)-2,3,4,5-tetrahydro-1H-[1,3]diazepino[1,2-a]benzimidazol-7-yl]propan-1-one]	< 1
CCC(OCCOC)c1cccc2nc3n(c12)CCCN3c1ccc(Cl)cc1Cl (centres unmarked) [Example 94, 1-(2,4-Dichlorophenyl)-6-[1-(2-methoxyethoxy)propyl]-1,2,3,4-tetrahydropyrimido[1,2-a]benzimidazole]	< 1
CCN(CC)c1ccc(Cl)c2nc3n(c12)CCCCN3c1ccc(Cl)cc1Cl [Example 98, 10-Chloro-1-(2,4-dichlorophenyl)-N,N-diethyl-2,3,4,5-tetrahydro-1H-[1,3]diazepino[1,2-a]benzimidazol-7-amine]	< 1
O=[N+]([O-])c1ccc(Cl)c2nc3n(c12)CCCN3c1ccc(Cl)cc1Cl [Example 99, 9-Chloro-1-(2,4-dichlorophenyl)-6-nitro-1,2,3,4-tetrahydropyrimido[1,2-a]benzimidazole]	< 1
CC/C(=N\OC)c1ccc(Cl)c2nc3n(c12)CCCN3c1ccc(Cl)cc1Cl [Example 121, (1E)-1-[9-Chloro-1-(2,4-dichlorophenyl)-1,2,3,4-tetrahydropyrimido[1,2-a]benzimidazol-6-yl]propan-1-one O-methyloxime]	< 1
CCO/N=C(\CC)c1ccc(Cl)c2nc3n(c12)CCCN3c1ccc(Cl)cc1Cl [Example 123, (1E)-1-[9-Chloro-1-(2,4-dichlorophenyl)-1,2,3,4-tetrahydropyrimido[1,2-a]benzimidazol-6-yl]propan-1-one O-ethyloxime]	< 1
